We go through 13 compounds from patent US8853185B2, “Coferons and methods of making and using them” (Cornell University, priority 2008, dated 2014).

The nature of data set [1]: Dimerization of linker element precursors in aqueous solution by MS and MS/MS. Type of data set: physicochemical. The protocol:
The ability of precursors to linker elements to form dimers in aqueous solutions was determined by mass spectrometry (MS) and mass spectrometry/mass spectrometry (MS/MS). Linker elements that form dimers (or multimers) only as a result of the ionization during mass spectrometry can be distinguished from those that truly form dimers in aqueous solution by determination of the fragmentation during mass spectrometry/mass spectrometry.

Data set [2] has as its target CDK2 (Homo sapiens, UniProt P24941). To be noted: read-out: DISSOCIATION CONSTANT (Kd); cited from earlier work.
Data set [3] addresses T1, β CATENIN (Homo sapiens, UniProt P35222).
T1 sequence (P35222 1-781): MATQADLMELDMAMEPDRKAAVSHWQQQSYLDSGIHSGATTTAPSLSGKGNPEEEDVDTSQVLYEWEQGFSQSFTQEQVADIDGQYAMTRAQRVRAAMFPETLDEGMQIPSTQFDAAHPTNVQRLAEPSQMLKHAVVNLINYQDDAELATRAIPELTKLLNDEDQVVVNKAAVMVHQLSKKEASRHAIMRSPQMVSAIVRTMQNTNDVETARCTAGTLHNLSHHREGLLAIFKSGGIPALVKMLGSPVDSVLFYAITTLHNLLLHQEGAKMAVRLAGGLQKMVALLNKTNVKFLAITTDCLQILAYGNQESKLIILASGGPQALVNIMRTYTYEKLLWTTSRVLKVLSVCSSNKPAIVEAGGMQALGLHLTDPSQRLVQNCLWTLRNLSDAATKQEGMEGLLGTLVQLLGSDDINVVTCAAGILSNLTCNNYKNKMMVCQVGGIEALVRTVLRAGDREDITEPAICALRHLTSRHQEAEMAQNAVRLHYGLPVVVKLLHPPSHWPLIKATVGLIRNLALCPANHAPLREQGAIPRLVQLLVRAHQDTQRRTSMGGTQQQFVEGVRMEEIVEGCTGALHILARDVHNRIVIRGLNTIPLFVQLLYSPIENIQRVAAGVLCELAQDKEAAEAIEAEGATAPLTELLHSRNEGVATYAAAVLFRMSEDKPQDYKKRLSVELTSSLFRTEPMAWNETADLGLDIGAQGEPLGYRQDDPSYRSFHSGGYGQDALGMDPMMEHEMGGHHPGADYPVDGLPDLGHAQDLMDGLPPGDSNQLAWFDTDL
To be noted: read-out: DISSOCIATION CONSTANT (Kd); cited from earlier work.

The target in data set [4] is CaMKII. To be noted: read-out: DISSOCIATION CONSTANT (Kd); cited from earlier work.
Data set [5] deals with MEK1 (Homo sapiens, UniProt Q02750). To be noted: read-out: DISSOCIATION CONSTANT (Kd); cited from earlier work.
The target of data set [6] is MEK2 (Homo sapiens, UniProt P36507). The note with it: read-out: DISSOCIATION CONSTANT (Kd); cited from earlier work.
In data set [7] the target is ERK. To be noted: read-out: DISSOCIATION CONSTANT (Kd); cited from earlier work.
For data set [8], the target named is Bcl-xL (Homo sapiens, UniProt Q07817). To be noted: read-out: DISSOCIATION CONSTANT (Kd); cited from earlier work.
Setting [9] is: self-dimerization, MS and MS/MS.
[10] abbreviates: piperidin-2-ylmethanol with cyclohexylboronic acid.

Bcl-xL, sequence (Q07817 whole entry, species assumed): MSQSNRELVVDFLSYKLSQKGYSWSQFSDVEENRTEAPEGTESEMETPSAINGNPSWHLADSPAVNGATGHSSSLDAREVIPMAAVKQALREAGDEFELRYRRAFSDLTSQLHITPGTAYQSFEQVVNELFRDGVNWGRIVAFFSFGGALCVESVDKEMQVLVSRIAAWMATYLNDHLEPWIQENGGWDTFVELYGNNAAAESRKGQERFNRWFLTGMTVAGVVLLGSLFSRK

In the case of `O=C(CO)CO` [1,3-dihydroxyacetone], the “ability to form dimers in aqueous solution” value (“ability to form dimers” for short) in data set [1] (setting [9]) is “exists mostly as the monomer”.

`O=C1CCCCC1O` (stereo not shown) [2-hydroxycyclohexanone]: the “ability to form dimers” value in data set [1] (setting [9]) is listed as “forms a dimer”.

Consider `Cc1occc(=O)c1O` [3-hydroxy-2-methyl-4H-pyran-4-one], for which the “ability to form dimers” value in data set [1] (with zinc acetate, 2 molecules co-ordinating one Zn cation, MS/MS) is listed as “form a dimer”.

Broadly, the Kd is the concentration at which binding is half-saturated. Consider `Nc1ncnc2c1ncn2[C@@H]1O[C@H](COP(=O)(O)OP(=O)(O)O)[C@@H](O)[C@H]1O` [ADP], for which, in data set [2], the Kd is 2700 nM.

Take `Nc1ncnc2c1ncn2[C@@H]1O[C@H](COP(=O)(O)OP(=O)(O)OP(=O)(O)O)[C@@H](O)[C@H]1O` [ATP]: in data set [2], the Kd was 227 nM.

Regarding `OB(O)C1CCCCC1` [cyclohexylboronic acid], the “ability to form dimers” value in data set [1] (setting [10]) was “form a dimer”.

As for `OCC1CCCCN1` (stereo not shown) [piperidin-2-ylmethanol], the “ability to form dimers” value in data set [1] (setting [10]) is listed as “form a dimer”.

In the case of APC: binding partner of β CATENIN, the Kd in data set [3] was 310000 nM.

With Calmodulin, the Kd in data set [4] is 30 nM.

Regarding ERK1: binding partner of MEK1, the Kd in data set [5] was 29000 nM.

For ERK2: binding partner of MEK2, in data set [6], the Kd is 9000 nM.

Regarding MEK1: binding partner of ERK, the dissociation constant (Kd) in data set [7] is 610 nM.

In the case of cytochrome c: binding partner of Bcl-xL, the Kd in data set [8] was 120 nM.
